Measured values from patent US4835162A (priority 1987, dated 1989).
“Also recorded” adds a separate entry of the source. Read-outs that look alike come from different tables or passages of the source.

How the values were obtained:
[1] = test system: nicotinic receptors (rat brain membranes); assay type: binding; conditions: for IC50: pH 7, read-out: [3H]-MCC IC50
[2] = test system: nicotinic receptors (rat brain membranes); assay type: binding
[3] = molecular target: nicotinic receptors (rat brain membranes); assay type: binding; conditions: read-out: 3H-Nicotine Binding IC50
[4] = molecular target: nicotinic receptors (rat brain membranes); conditions: read-out: 3H-MCC Binding IC50
[5] = test system: rats; conditions: rat, in vivo
[6] = test system: rats; parameters: species or system Sprague-Dawley male rats; Blockade of (nicotine-induced prostration) EC50: unit not given here; conditions: rat, in vivo
[7] = test system: rats; conditions: rat, in vivo; remark: listed apart in the source
[8] = test system: rats; conditions: rat, in vivo; remark: listed apart in the source
[9] = test system: rats; assay: animal or person; conditions: Rattus norvegicus, ip, 7 min, read-out: % Antagonism (seizures)
[10] = molecular target: nicotinic receptors (rat brain membranes); assay type: binding; conditions: for IC50: pH 7, read-out: [3H]-nicotine IC50; for Kd: read-out: Kd value in competition binding
[11] = test system: rats; assay: animal or person; conditions: Rattus norvegicus, iv, read-out: Antagonistic dose needed to completely block elevation in systolic blood pressure
[12] = test system: rats; conditions: rat, in vivo; remark: listed apart in the source
[13] = test system: rats; conditions: rat, in vivo, iv

## [3H]C([3H])([3H])[N+](C)(C)CCOC(=O)NC [[^3 H]-MCC, [^3 H]-methylcarbamyl choline]
[1]
  displaceability of [3H]-MCC binding by muscarinic antagonists: not [^3 H]-MCC binding, is displaceable by low concentrations of muscarinic antagonists; also recorded: not displaceable by muscarinic cholinergic antagonists
[2]
  Bmax of [3H]-MCC binding: 4.0×10^-14 moles/mg protein
  Scatchard Kd and Bmax with unlabeled (-)-nicotine replacing MCC, in words: comparable Kd and Bmax values
[2]; brain membranes, pH 7
  rate constant for association, [3H]-MCC: 300000 M⁻¹ s⁻¹
  rate constant for dissociation, [3H]-MCC: 0.001 s⁻¹
[2]; read-out: Kd (Hill binding constant) of [3H]-MCC
  Kd: 0.0009 µM
[2]; read-out: Kd from rate constants, [3H]-MCC
  Kd: 0.0033 µM
[2]; read-out: Kd, Scatchard analysis of [3H]-MCC binding
  Kd: 0.0011 µM

## CN(C)CCOC(=S)Nc1ccccc1 [DMAE phenylthiocarbamate]
[3]
  IC50: 70 µM
[4]
  IC50: 20 µM

## C[N+](C)(C)CCOC(=O)CCC(=O)OCC[N+](C)(C)C [TMAE succinate, succinylcholine]
[5]
  Prostration EC50: 50

## CN1[C@@H]2CC[C@H]1C[C@@H](OC(=O)C(CO)c1ccccc1)C2 (stereo partly shown) [atropine, reference compound]
[6]
  blockade of nicotine-induced prostration / antagonism, in words: inactive
[7]
  Seizures: 6/6
[8]
  protection against nicotine mortality, in words: ineffective
[9]
  responders at 25 mg/kg: 0%

## CN(C)CCOC(=O)CCC(=O)OCCN(C)C [DMAE succinate]
[3]; pH 7.5
  IC50: 50 µM
[4]; pH 7.5
  IC50: 60 µM
[5]
  Prostration EC50: 1000

## CNC(=O)Oc1ccc2c(c1)[C@]1(C)CCN(C)[C@@H]1N2C [physostigmin, reference compound]
[6]
  blockade of nicotine-induced prostration / antagonism, in words: inactive

## CN(C)CCOC(N)=O [DMAE carbamate]
[10]
  IC50: 10 µM
[1]
  IC50: 10 µM
[3]; pH 7.5
  IC50: 10 µM
[4]; pH 7.5
  IC50: 10 µM
[5]
  Prostration EC50: 400
  behavioral effect, in words: only a similar effect

## C[N+](C)(C)CCOC(N)=O [carbamylcholine]
[5]
  Prostration EC50: 100

## C[N+](C)(C)CCOC(=O)Nc1ccccc1 [TMAE phenylcarbamate]
[3]
  IC50: 6 µM
[4]
  IC50: 0.8 µM
[6]
  Blockade of (nicotine-induced prostration) EC50: 200
  blockade of nicotine-induced prostration / antagonism, in words: next in effectiveness and of comparable activity
[7]
  Seizures: 1/9
  protection against seizures, in words: almost complete protection
[8]
  % Antagonism (protection against nicotine mortality): 50%
  Mortality: 4/10
[9]
  responders at 25 mg/kg: 89%
[11]
  ED100: 5 ± 1 mg/kg

## C[N+](C)(C)CCOC(=O)C1CCCCC1 [TMAE cyclohexylcarboxylate, choline ester of cyclohexylcarboxylic acid]
[3]
  IC50: 0.08 µM
[4]
  IC50: 0.05 µM
[6]
  Blockade of (nicotine-induced prostration) EC50: 10
[7]
  Seizures: 1/8
  blockade of seizure activity: 78%
[8]
  % Antagonism (protection against nicotine mortality): 66%
[9]
  responders at 25 mg/kg: 78%

## N--benzylpiperidyl-methylcarbamate
[3]
  IC50: > 100 µM
[4]
  IC50: > 100 µM

## CCN(CC)CCOC(=O)c1ccc(N)cc1 [procaine, reference compound]
[6]
  blockade of nicotine-induced prostration / antagonism, in words: effectively block nicotine-induced prostration; also recorded: antagonists

## CNC(=O)OCCCN(C)C [DMAP methylcarbamate]
[3]; pH 7.5
  IC50: 0.2 µM
[4]; pH 7.5
  IC50: 0.05 µM
[5]
  Prostration EC50: 100

## CN1[C@@H](CC(=O)c2ccccc2)CCC[C@H]1CC(=O)c1ccccc1 [lobelanine, reference compound]
[3]
  IC50: 0.01 µM
[4]
  IC50: 0.005 µM
[6]
  Blockade of (nicotine-induced prostration) EC50: 25

## CCN1CCCC1c1cccnc1 (stereo not shown) [N'--ethyl nornicotine, reference compound]
[10]
  decrease in affinity relative to nicotine: 3 fold
  IC50: 0.03 µM
[1]
  IC50: 0.1 µM
[3]; pH 7.5
  IC50: 0.03 µM
[4]; pH 7.5
  IC50: 0.1 µM
[5]
  Prostration EC50: 20

## C[N+](C)(C)CCOC(=O)Cc1ccccc1 [TMAE phenylacetate]
[3]
  IC50: 2 µM
[4]
  IC50: 0.3 µM
[6]
  Blockade of (nicotine-induced prostration) EC50: 100
  blockade of nicotine-induced prostration / antagonism, in words: next in effectiveness and of comparable activity

## CN(C)CCOC(=O)C1CCCCC1 [DMAE cyclohexylcarboxylate, dimethylaminoethyl cyclohexylcarboxylate]
[3]
  IC50: 2 µM
[4]
  IC50: 4 µM
[6]
  Blockade of (nicotine-induced prostration) EC50: 100
[7]
  % Antagonism (seizures): 50%
  Seizures: 4/8
  seizures, in words: about half of the rats exhibited seizures

## COc1ccc(CC2c3cc(OC)c(OC)cc3CCN2C)cc1OC (stereo not shown) [N--methyltetrahydro papavarine, reference compound]
[3]
  IC50: 70 µM
[4]
  IC50: 80 µM

## Nc1c2c(nc3ccccc13)CCCC2 [9-aminotetrahydroacridine, reference compound]
[6]
  Blockade of (nicotine-induced prostration) EC50: 200

## CNC(=O)OC1CCN(Cc2ccccc2)CC1 [N--benzyl-4-piperdyl methylcarbamate]
[3]
  IC50: > 100 µM
[4]
  IC50: > 100 µM

## α-bungarotoxin
[10]
  IC50: > 100 µM
  Kd: > 100 µM
[1]
  IC50: > 100 µM

## CN(C)CCOC(=O)Nc1ccccc1 [DMAE phenylcarbamate]
[3]
  IC50: 100 µM
[4]
  IC50: 100 µM

## CN(C)CCOC(=O)c1ccccc1 [DMAE benzoate, dimethylaminoethyl benzoate]
[6]
  Blockade of (nicotine-induced prostration) EC50: 100
[7]
  % Antagonism (seizures): 45%
  Seizures: 5/9
[11]
  ED100: 10 ± 25 mg/kg

## C[N+](C)(C)CCCCCC[N+](C)(C)C [hexamethonium]
[10]
  IC50: > 100 µM
  Kd: > 100 µM

## C[N+](C)(C)CCOC(=S)Nc1ccccc1 [TMAE phenylthiocarbamate]
[3]
  IC50: 0.5 µM
[4]
  IC50: 0.5 µM
[6]
  Blockade of (nicotine-induced prostration) EC50: 50
  blockade of nicotine-induced prostration / antagonism, in words: next in effectiveness and of comparable activity
[8]
  % Antagonism (protection against nicotine mortality): 63%
  Mortality: 3/10
[11]
  ED100: 4 ± 0.8 mg/kg

## CNC(=O)OCCN(C)C [DMAE methylcarbamate, dimethylaminoethylmethylcarbamate]
[10]
  IC50: 0.5 µM
[1]
  IC50: 0.8 µM
[3]; pH 7.5
  IC50: 0.5 µM
[4]; pH 7.5
  IC50: 0.8 µM
[5]
  Prostration EC50: 300
  behavioral effect, in words: moderate weakness in the hindlimbs and head

## CN1CCCC(OC(=O)c2ccccc2)C1 (stereo not shown) [N--methyl-3-piperdyl benzoate]
[3]
  IC50: 30 µM
[4]
  IC50: 20 µM
[6]
  Blockade of (nicotine-induced prostration) EC50: 300

## CCN(CC)CC(=O)Nc1c(C)cccc1C [lidocaine, reference compound]
[6]
  blockade of nicotine-induced prostration / antagonism, in words: inactive

## CCCN1CCCC1c1cccnc1 (stereo not shown) [N'--propyl nornicotine, reference compound]
[10]
  decrease in affinity relative to nicotine: 200 fold
  IC50: 0.6 µM
[1]
  IC50: 1 µM
[3]; pH 7.5
  IC50: 0.6 µM
[4]; pH 7.5
  IC50: 1 µM
[5]
  Prostration EC50: 80

## CC(=O)OCC[N+](C)(C)C [acetylcholine]
[12]
  psychotropic action (prostration), in words: inactive
[5]
  Prostration EC50: 300

## CN1C(CC(O)c2ccccc2)CCCC1CC(O)c1ccccc1 (stereo not shown) [lobelanidine, reference compound]
[3]
  IC50: 0.02 µM
[4]
  IC50: 0.005 µM
[6]
  Blockade of (nicotine-induced prostration) EC50: 25

## CN(C)C(=O)Oc1cccc([N+](C)(C)C)c1 [prostigmin, reference compound]
[6]
  blockade of nicotine-induced prostration / antagonism, in words: inactive

## CN1CCCC1c1cccnc1 (single isomer, unassigned; (-)) [(-)-nicotine]
[12]
  dose producing effect: prostration, in words: prostration of all four limbs
  times more effective than (+)-enantiomer of nicotine (prostration): 20 times
  times more potent than N'-ethyl analogue (prostration): 10 times
  times more potent than N'-propyl analogue (prostration): 40 times
  times more potent than nicotonium analogue (prostration): 50 times
  volume of nicotine solution required to produce prostration: 1-2 μl of a 10^-3 M solution
[5]
  Prostration EC50: 2
  agonist or inactive on prostration, in words: agonists
  duration of prostration: 2 to 4 min
  onset of prostration response: 1 to 3 s
  respiratory effect, in words: deep diaphragmatic breathing and a decreased respiratory rate
[7]
  signs after nicotine, in words: prostration followed by tremors, fasciculations, cyanosis and labored breathing, and myoclonic seizures
[7]; ip, 1.5 mg/kg
  Seizures: 10/10
[8]; ip, 3 mg/kg
  Mortality: 8/10
[13]
  increase in systolic blood pressure by nicotine: 25%

## O=c1cccc2n1C[C@@H]1CNC[C@H]2C1 [cytisine, reference compound]
[3]; pH 7.5
  IC50: 0.006 µM
[4]; pH 7.5
  IC50: 0.0001 µM
[5]
  Prostration EC50: 2

## CN(C)c1cccnc1 [3-dimethylaminopyridine]
[5]
  agonist or inactive on prostration, in words: agonists

## CC(=O)OCCN(C)C [DMAE acetate]
[3]; pH 7.5
  IC50: 50 µM
[4]; pH 7.5
  IC50: 50 µM
[5]
  Prostration EC50: > 1000

## CN(C)CCOC(=O)c1cccnc1 [DMAE nicotinate]
[3]
  IC50: 0.2 µM
[4]
  IC50: 0.2 µM
[6]
  Blockade of (nicotine-induced prostration) EC50: 50
  blockade of nicotine-induced prostration / antagonism, in words: next in effectiveness and of comparable activity; also recorded: antagonistic to the nicotine-induced prostration
